Assay results published in patent US20010023293A1, “2-hydroxyphenyl benzotriazoles as uv-a/b filters” (ROCHE VITAMINS INC., priority 2000, published 2001).

Key:
[1] = UV absorption spectrum in CH2Cl2; type: physicochemical
[2] = Miscibility with cosmetic solvents such as Cétiol LC (liposolubility); settings: such as Cétiol LC (Cocoyl caprylate caprate)
[3] = Photostability under irradiation at high dilution with a Heraeus 150 W Hg-lamp; settings: irradiation at high dilution (50 ppm)

Row | Miscibility with cosmetic solvents [2] | Photostability [3] | Compound | UV absorption maximum, first (UV-B) band [1] [nm] | UV absorption maximum, second (UV-A) band [1] [nm] | melting point [°C]
1 | – | – | CCCCC=CC(C)c1cc(C)cc(-n2nc3ccccc3n2)c1O (centres unmarked) [8% byproduct, 2-(benzotriazole-2-yl)-4-methyl-6-(3-octen-2-yl)-phenol] | 306 | 344 | –
2 | easily mixable | photostable | C=CC(CCCCC)c1cc(C)cc(-n2nc3ccccc3n2)c1O (centres unmarked) [Example 1, 2-Benzotriazole-2-yl-4-methyl-6-(1-octen-3-yl)-phenol] | 306 | 344 | 37 to 38
3 | – | – | C=CC(CCC)c1cc(C(C)(C)CC(C)(C)C)cc(-n2nc3ccccc3n2)c1O (centres unmarked) [Example 2, 2-(benzotriazole-2-yl)-4-(1,1,3,3-tetramethylbutyl)-6-(1-hexen-3-yl)-phenol] | 305 | 343 | 80 to 81
4 | – | – | CCCCCC(CC)c1cc(C)cc(-n2nc3ccccc3n2)c1O (centres unmarked) [Example 3, 2-(benzotriazole-2-yl)-4-methyl-6-(3-octyl)-phenol] | 306 | 346 | –
5 | – | – | CCCC(CC)c1cc(C(C)(C)CC(C)(C)C)cc(-n2nc3ccccc3n2)c1O (centres unmarked) [Example 4, 2-(benzotriazole-2-yl)-4-(1,1,3,3-tetramethylbutyl)-6-(3-hexyl)-phenol] | 306 | 346 | –
